{"source": "patent US6262123A", "about": "“Ortho-substituted benzoylguanidines, process for their preparation, their use as a medicament or diagnostic, and medicament comprising them” (Aventis Pharma Deutschland GmbH, priority 1996, dated 2001)", "note": "Counter-ions that a name gives are not always drawn.", "data": [{"target": "T1, rabbit erythrocyte Na^+ /H^+ exchanger (Oryctolagus cuniculus, UniProt P23791)", "T1 construct": "determine the Na^+ influx into the erythrocytes by way of Na^+ /H^+ exchange; endogenous in cells; host or cells: erythrocytes in whole blood of cholesterol-fed New Zealand White rabbits", "T1 sequence (P23791 whole entry)": "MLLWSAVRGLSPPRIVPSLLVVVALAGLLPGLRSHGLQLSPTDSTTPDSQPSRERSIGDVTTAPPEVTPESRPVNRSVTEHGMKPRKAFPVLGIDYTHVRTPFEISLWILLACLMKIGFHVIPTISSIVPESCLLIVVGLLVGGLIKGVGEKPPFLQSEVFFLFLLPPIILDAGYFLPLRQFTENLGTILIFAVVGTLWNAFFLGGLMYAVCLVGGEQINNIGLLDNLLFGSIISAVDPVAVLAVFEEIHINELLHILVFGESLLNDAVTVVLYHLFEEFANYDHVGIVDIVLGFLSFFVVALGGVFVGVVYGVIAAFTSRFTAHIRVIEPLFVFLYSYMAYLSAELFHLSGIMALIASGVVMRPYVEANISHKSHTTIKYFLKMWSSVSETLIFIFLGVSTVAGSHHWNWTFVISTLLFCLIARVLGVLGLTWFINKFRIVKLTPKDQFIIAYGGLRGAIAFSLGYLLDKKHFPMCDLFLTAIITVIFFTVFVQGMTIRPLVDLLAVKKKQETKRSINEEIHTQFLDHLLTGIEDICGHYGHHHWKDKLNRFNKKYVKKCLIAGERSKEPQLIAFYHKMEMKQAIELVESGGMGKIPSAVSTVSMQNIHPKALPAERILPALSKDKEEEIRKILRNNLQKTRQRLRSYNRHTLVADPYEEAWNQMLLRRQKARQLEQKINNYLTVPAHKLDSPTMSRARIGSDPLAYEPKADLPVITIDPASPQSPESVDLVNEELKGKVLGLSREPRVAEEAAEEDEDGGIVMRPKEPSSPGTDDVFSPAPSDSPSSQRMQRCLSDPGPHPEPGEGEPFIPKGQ", "experiment": "Inhibition of the rabbit erythrocyte Na^+ /H^+ exchanger (amiloride-sensitive Na^+ influx, flame photometry)", "type": "cell-based, New Zealand White rabbits", "details": "erythrocytes of cholesterol-fed rabbits; pH 7.4, 37° C., hyperosmolar salt/sucrose medium", "from_the_text": "Inhibition of the rabbit erythrocyte Na^+ /H^+ exchanger New Zealand White rabbits (Ivanovas) were given a standard diet containing 2% cholesterol for six weeks in order to activate the Na^+ /H^+ exchange and thereby render it possible to use flame photometry to determine the Na^+ influx into the erythrocytes by way of Na^+ /H^+ exchange. The blood was withdrawn from the aural arteries and rendered incoagulable by adding 25 IU of potassium heparin. One part of each sample was used for determining the hematocrit in duplicate by means of centrifugation. Aliquots of in each case 100 μl were used for measuring the initial Na^+ content of the erythrocytes.\nIn order to determine the amiloride-sensitive sodium influx, 100 μl of each blood sample were in each case incubated, at pH 7.4 and 37° C., in 5 ml of a hyperosmolar salt/sucrose medium (mmol/l: 140 NaCl, 3 KCl, 150 sucrose, 0.1 ouabain, 20 tris(hydroxymethyl)aminomethane). After that, the erythrocytes were washed three times with an ice-cold solution of MgCl2 /ouabain (mmol/l: 112 MgCl2, 0.1 ouabain) and hemolyzed in 2.0 ml of distilled water. The intracellular sodium content was determined by flame photometry.\nThe net influx of Na^+ was calculated from the difference between the initial sodium values and the sodium content of the erythrocytes after incubation. The amiloride-inhibitable sodium influx was obtained from the difference in the sodium content of the erythrocytes after incubating with and without 3×10^-4 mol/l amiloride. The same procedure was adopted in the case of the novel compounds.", "units": {"IC50": "nM"}, "values": [{"molecule": "NC(N)=NC(=O)c1ccc(O)cc1Cl", "note": "[Example 1, 2-Chloro4-hydroxybenzoylguanidine hydrochloride]", "IC50": 4000}, {"molecule": "NC(N)=NC(=O)c1cc(I)c(O)cc1Cl", "note": "[Example 2, 2-Chloro-4-hydroxy-5-iodobenzoylguanidine hydrochloride]", "IC50": 240}, {"molecule": "NC(N)=NC(=O)c1cc(I)c(O)c(I)c1Cl", "note": "[Example 3, 2-Chloro4-hydroxy-3,5-diiodobenzoylguanidine hydrochloride]", "IC50": 100}, {"molecule": "NC(N)=NC(=O)c1cc(C(F)(F)F)c(O)cc1Cl", "note": "[Example 4, 2-Chloro4-hydroxy-5-trifluoromethylbenzoylguanidine hydrochloride]", "IC50": 140}]}]}
